Drawing on a melting point compilation (Tetko et al.; mined from patent text by program, amines drawn as free bases though some values may be those of a salt), this text covers melting point for 88 compounds.

Broadly, the melting point is the temperature, or range, at which the solid turns liquid. `Nc1nc2ccccc2c2c1ncn2CCCCNC(=O)c1ccc(Cn2c(N3CCCC3)nc3ccccc32)cc1` came in with a melting point of 150 to 153 °C.

The compound `CCOP(=O)(OCC)c1c(C)c2c(c(C)c1-c1c(OCc3ccccc3)ccc3ccccc13)CN(S(=O)(=O)c1ccc(C)cc1)C2` came in with a melting point of 69.8 to 71.7 °C.

With `CCOC(=O)C1(C(=O)OCC)N(Cc2ccc(OC)cc2OC)C(=O)CC1(C)O` (stereo not drawn), the melting point was 106 to 107 °C.

Compound `CCCCC(C)c1ccc(C=Cc2cc3cc4ccccc4cc3s2)cc1` (stereo not drawn) displayed a melting point of 280 to 282 °C.

Turning to `C=CCOc1cc(NC(=O)C2CCCCC2C(=O)OCC)c(F)cc1Cl` (stereo not drawn), the melting point was 52 to 53 °C.

`NCc1ccn(-c2cc3c(cc2[N+](=O)[O-])[nH]c(=O)c(=O)n3CC(=O)O)c1`: the melting point was above 270 °C.

Take `Clc1cc(Cl)c2c(c1)[nH]c1c2ccc2cc[nH]c21`: the melting point is above 250 °C.

As for `COc1ccc(C2=NN(CCCCOc3ccc(C4=NNC(=O)C4(C)C)c(F)c3F)C(=O)C2(C)C)c2cc(C(F)(F)F)sc12`, the melting point is 167 to 168 °C.

On to `O=C1C=C(c2ccc(F)cc2)CN1`, for which the melting point came to 190 °C.

In turn, `Cn1cc(C(=O)NCc2ccc(Cl)cc2)c(=O)c2cc(CN3CCOCC3)cc(C#CCC(CO)CO)c21` gave a melting point of 190 to 193 °C.

The compound `CCOC(CBr)(OCC)C(=NOC)C(=O)Cl` had a melting point of 33 to 35 °C.

Regarding `CNC(=O)c1ccc(Nc2nc(Nc3cc4c(cc3OC)CCN(C(COC)COC)CC4)ncc2Cl)c(OC)c1`, the melting point fell in the range of 85 to 97 °C.

As for `O=C(Nc1nccs1)c1c(CO)nc2c(C(F)(F)F)cccc2c1O`, the melting point is 280 °C.

`CC(C)(C)c1cc(-c2nc(O)ns2)cc(C(C)(C)C)c1O`: the melting point was 230 to 232 °C.

`Cc1cccc(NC(=O)OCc2cccc(O)c2)c1CNc1cccn2c(C)c(C)nc12` gave a melting point of 190 to 193 °C.

Compound `C#CC1(O)CCC2C3=C(CCC21C)c1ccc(OC)cc1CC3` (stereo not drawn) displayed a melting point of 133 to 137 °C.

Compound `Cn1nc2ccccc2c1S(N)(=O)=O` gave a melting point of 181 to 183 °C.

The compound `CC(C)(NC=O)c1cccc(C(F)(F)C(F)(F)c2ccccc2)c1` returned a melting point of 90 to 95 °C.

In the case of `CC1(C)CC(O)CC(C)(C)N1C#N`, the melting point lay within 96 to 98 °C.

Regarding `CCC(CC)C1CC(=O)C(C(=O)NS(=O)(=O)c2ccc(Cl)cc2)C(=O)C1` (stereo not drawn), the melting point fell in the range of 121 to 122 °C.

`O=C(C=CCc1c[nH]c2ccccc12)NC(C(=O)OCc1ccccc1)C(=O)OCc1ccccc1` had a melting point of 162 to 163 °C.

Turning to `CC(C#N)=C1CCN(c2ccc(N3C[C@@H](CNNCC(=O)O)OC3=O)cc2F)CC1`, the melting point lay within 141 to 142 °C.

As to `CCOC(=O)NCC(=O)O`, the melting point lay in the range of 55 to 58 °C.

Compound `CC(C)(C)NC(CCOc1cccc2c1CC(=O)N2)OC(=O)Cc1ccccc1` (stereo not drawn) registered a melting point of 112 to 115 °C.

`O=C(NCC1CC1)N1CC(Oc2ccc(C(F)(F)F)cc2)C1`: the melting point lay in the range of 132 to 133 °C.

Compound `NNc1ccnc2c(NC(=O)c3c(Cl)cccc3Cl)cc(C(F)(F)F)cc12` came in with a melting point of 228 to 232 °C.

`Nc1ccccc1Nc1ccc(C(=NO)c2ccccc2)cc1`: the melting point lay in the range of 89 to 91 °C.

On to `CC(=O)c1ccccc1Nc1c(Cl)ccc(C)c1Cl`, for which the melting point lay in the range of 130 to 132 °C.

Compound `NCC(=O)NC(Cc1ccccn1)c1ccccc1` (stereo not drawn) came in with a melting point of 75 to 77 °C.

`CCCc1c(S)ccc2c(=O)cc(C(=O)OC)oc12` gave a melting point of 98 to 99 °C.

For `CCOCCOC(=O)C1=C(C)N(COCC)C(C)=C(C(=O)OCCOCC)C1c1cccc([N+](=O)[O-])c1`, the melting point was in the range of 63 to 63.5 °C.

As to `COC(=O)c1ccc(-c2nn(-c3ccc(C(N)=O)cc3)c3ccccc23)cc1`, the melting point lay within 267 to 269 °C.

Turning to `O=C1Cc2ccccc2C(c2ccccc2C(F)(F)F)N1` (stereo not drawn), the melting point was 210 to 212 °C.

`CN(C)C(=O)c1ccc(N)cc1S(=O)(=O)NC(C)(C)C`: the melting point fell in the range of 205 to 208 °C.

`O=C(NCCCn1cncn1)c1ccco1` showed a melting point of 63 to 66 °C.

`O=C(c1cc([N+](=O)[O-])cc(C(F)(F)F)c1)N1CCC1`: the melting point was found to be 91 °C.

`CC(Br)C(=O)c1ccc(O)cc1` (stereo not drawn) had a melting point of 95 to 97 °C.

In turn, `CCCCC[C@H]1CC[C@H](CCc2ccc(CCC)c(C#N)c2C#N)CC1` returned a melting point of 83.6 °C.

`CN1CC(CCCl)Oc2ccc(F)cc2C1=S` (stereo not drawn): the melting point lay in the range of 135 to 137 °C.

`CC(=O)N1CCc2c(sc(C)c2C(=O)CCN2CCC(c3noc4cc(F)ccc34)CC2)C1`: the melting point fell in the range of 180 to 182 °C.

`COC(=O)[C@@H]1Cc2ccccc2N1C(=O)[C@H](CC(=O)O)NC(=O)C(F)(F)F` registered a melting point of 157 to 158 °C.

On to `NC(=O)NN=Cc1ccc(Oc2ccc([N+](=O)[O-])cc2)cc1`, for which the melting point is 221 to 222 °C.

In turn, `NC(=O)C1CCN(c2ncncc2Br)CC1` gave a melting point of 188 to 190 °C.

`CCOC(=O)c1c(C)cc2cnc(-c3ccccc3)nc2c1C` gave a melting point of 85 to 86 °C.

The compound `Oc1cc2c3cc(O)c(O)cc3n(Cc3cccnc3)c2cc1O` yielded a melting point of 290 to 294 °C.

`CSc1nc(-c2ccccn2)n(-c2ccc(F)cc2)c(=O)c1C#N` returned a melting point of 221 to 227 °C.

In turn, `CCCSc1ncc(C(=O)N[C@H](C(=O)O)[C@@H](C)CC)n1Cc1ccccc1Cl` had a melting point of 156 to 158 °C.

The compound `COc1ccc(C(N)=S)c(OC)c1` gave a melting point of 115 to 118 °C.

The compound `CCCCN1C(=O)C2=C(c3ccc(Cl)cc3)N(CCCC)C(=O)C2=C1c1ccc(Cl)cc1` gave a melting point of 176 to 177 °C.

In turn, `CC1NC(=O)NN=C1c1ccc(C#N)cc1` (stereo not drawn) gave a melting point of 268 to 269 °C.

Regarding `CCCCn1c(=O)c2nc(C(=O)O)cn2c2ccccc21`, the melting point was in the range of 220 to 222 °C.

On to `Cc1c(CP(=O)(OCCCl)OCCCl)cc(C(C)(C)C)c(O)c1C`, for which the melting point lay within 133 to 135 °C.

For the compound `CSc1cccc(SC)c1S(=O)(=O)NC(C)(C)C`, the melting point fell in the range of 182 to 185 °C.

As for `CCCC(=O)NCc1cccc2c1C(=O)N(C1CCC(=O)NC1=O)C2=O` (stereo not drawn), the melting point was in the range of 121 to 123 °C.

As to `CS(=O)(=O)Nc1ccnn1-c1ncc(Cl)cc1Cl`, the melting point lay within 52 to 54 °C.

On to `COc1cc(Cl)cc(CO)c1Cl`, for which the melting point fell in the range of 58 to 64 °C.

Take `Cc1ccc(S(=O)(=O)OCC2Cc3cccc(-c4ccc(F)c(Cl)c4)c3O2)cc1` (stereo not drawn): the melting point was 104 to 108 °C.

Compound `O=C(NNc1ccc([N+](=O)[O-])cc1)C(F)(F)F` displayed a melting point of 115 to 117 °C.

The compound `CCOC(=O)C1(CCCN)CCCCC1(O)c1ccccc1` (stereo not drawn) had a melting point of 130 to 133 °C.

In the case of `N#CC(=C1CCCN1)c1ccc(-c2ccccc2)cc1`, the melting point was in the range of 168 to 170 °C.

Regarding `O=c1[nH]ncc2c1c(O)nc1cc(Cl)cc(Cl)c12`, the melting point was above 350 °C.

Turning to `COC(=O)c1cc(F)c(O)nc1O`, the melting point was in the range of 208 to 213 °C.

As to `COCCc1nc2c(N)nc3c(c2n1CCOCCN(C)C(=O)Nc1ccccc1)CCCC3`, the melting point was in the range of 168 to 170 °C.

`CN1CCN(C(=O)OC2C3=C(SCCS3)C(=O)N2c2ccccc2)CC1` (stereo not drawn) came in with a melting point of 166 °C.

`Cc1cc(C)c2ncc(C#N)c(-c3ccccc3Cl)c2c1` gave a melting point of 153 to 154 °C.

Turning to `OC12CC3CC(C1)CC(NC(c1ccccc1)(c1ccccc1)c1ccccc1)(C3)C2`, the melting point was 184 to 186 °C.

Turning to `CS(=O)(=O)c1ccc(C2=C(c3ccccc3)C(=NOCc3ccccc3)C2)cc1`, the melting point is 148 to 150 °C.

For `O=C(O)/C=C/C=C/C=C/C1=Cc2cc(C(F)(F)F)ccc2OC1`, the melting point lay in the range of 208 to 210 °C.

Take `COc1cccc2c(=O)n(-c3ccc(Br)cc3)c(-c3cc(C)c(OCCO)c(C)c3)nc12`: the melting point lay within 100 to 102 °C.

Compound `CC(=O)N1C(=O)C(C(=O)c2cccs2)c2ccccc21` (stereo not drawn) had a melting point of 139 to 140 °C.

Consider `O=c1[nH]nc(CCCN2CCN(c3cccc(Cl)c3)CC2)n1CCOc1ccccc1`, for which the melting point lay in the range of 150 to 153 °C.

As for `CCOc1cc(C(=CC#N)c2ccc(OC)c(-n3cccc3)c2)ccc1OC`, the melting point is 109 to 111 °C.

In turn, `CCOC(=O)CSc1nc(Cl)cc(NCc2ccc(C)cc2C)n1` came in with a melting point of 95 to 98 °C.

`CC(C)SC(=O)Cc1cc(Oc2ccc(C(F)(F)F)cc2Cl)ccc1[N+](=O)[O-]` came in with a melting point of 102 to 104 °C.

On to `CCN(CC)C1=CC(=O)C(=O)C=C1N(CC)CC`, for which the melting point is 100 to 103 °C.

`CCOC(=O)COc1ccc(CC2SC(=O)NC2=O)cc1` (stereo not drawn) returned a melting point of 105 to 106 °C.

`CC(C)COc1cc(-c2ccc(N)c(OCC(C)C)c2)ccc1N` gave a melting point of 270 °C.

For `CCOC(=O)C1(C(=O)OCC)NC(=O)CC1c1ccccc1` (stereo not drawn), the melting point is 97 to 99 °C.

`O=C(Nc1ccc(C(=O)N2Cc3cccn3Cc3ccccc32)cc1)c1cccc(F)c1F` registered a melting point of 252 to 258 °C.

`COc1ccc(Cn2cnc3c(-c4ccco4)ncnc32)cc1C` gave a melting point of 169 to 170 °C.

Compound `CCOC(=O)COc1cc(Cl)c2c(=O)c(-c3ccc(OC)cc3)coc2c1` showed a melting point of 121 to 122 °C.

In the case of `O=[N+]([O-])c1cc(C(F)(F)C(F)(F)C(F)(F)/C=C/C(F)(F)C(F)(F)C(F)(F)c2ccc(O)c([N+](=O)[O-])c2)ccc1O`, the melting point lay in the range of 122 to 123 °C.

In turn, `CCSC(C#N)C1=NCCc2cc(OC)c(OC)cc21` (stereo not drawn) displayed a melting point of 113 to 115 °C.

`ON=C1CCc2cc(F)ccc21` returned a melting point of 150 to 155 °C.

The compound `C#CCOc1cc(-n2nc(C(C)(C)C)oc2=O)c(F)cc1Cl` gave a melting point of 72 to 73 °C.

`COC(=O)C1=C(C)Nc2nc(N3CCOCC3)nc(N3CCOCC3)c2C1c1cccc(Cl)c1Cl` (stereo not drawn) returned a melting point of 188 °C.

`CC(C)(C)c1ccc(CCC(CC2CCCCC2)OC(=O)Oc2ccc(C(=O)O)cc2)cc1NC(=O)CC1c2ccccc2Oc2ccccc21` (stereo not drawn) gave a melting point of 139 to 141 °C.

For `Cc1ccc(Cn2nc(-c3cc(C(C)(C)C)c(O)c(C(C)(C)C)c3)c3cccnc32)cc1`, the melting point was 134 to 135 °C.
